Source: publication PMC8854719, “Phase 1A/1B dose-escalation and -expansion study to evaluate the safety, pharmacokinetics, food effects and antitumor activity of pamiparib in advanced solid tumours” (British Journal of Cancer, 2021)
Several values for one entry are separate records, joined by “and”; a condition that tells them apart may be missing. Equal values may be shown once.

Columns and labels:
[1] = tested on: epithelial ovarian cancer (EOC); test: Tumour response and PFS per RECIST v1.1, EOC efficacy-evaluable population; type: in vivo, human
Experimental: (§1) Tumour response was evaluated by RECIST v1.1. For patients with ovarian cancer, tumour response was assessed per RECIST v1.1 and by Gynecologic Cancer Intergroup (GCIG) CA-125 criteria. Tumour response for patients with prostate cancer was assessed by Prostate Cancer Clinical Trials Working Group 2 (PCWG2) criteria. Objective response rate (ORR) was defined as the proportion of patients achieving a confirmed complete response (CR) or partial response (PR) on study treatment. Blood tumour antigens (e.g., carcinoembryonic antigen for colorectal cancer, CA-125 for ovarian cancer and prostate-specific antigen [PSA] for mCRPC) were assessed during screening, every 6 weeks after the first pamiparib dose in the first 12 months, and every 9 weeks thereafter.
Analyses of ORR (95% confidence interval [CI]) by investigator assessment were performed using predefined subgroups of the EOC population, including age group (<65 years versus ≥65 years), baseline ECOG performance status (0 versus 1), solid tumour stage (Stage III versus IV), BRCA/HRD status (germline BRCA mutation versus wild-type or unknown; germline or somatic BRCA mutation versus wild-type or unknown; HRD-positive versus negative or unknown), and platinum response status (platinum-sensitive versus platinum-resistant versus platinum-refractory).
(§2) The safety population comprised all patients in the dose-escalation and dose-expansion phases who received at least one dose of pamiparib (Supplementary Table S2). Patients in the safety analysis set for whom valid pamiparib PK parameters were estimated and for whom evaluable PD results were available represented the PK population and the PD population, respectively. The efficacy-evaluable population included patients in the safety analysis set who had at least one evaluable postbaseline tumour assessment or those who discontinued due to clinical disease progression or early death before tumour assessment could be performed. The EOC efficacy-evaluable population was a subset of the overall efficacy-evaluable population that included patients with EOC from both the dose-escalation and dose-expansion phases. Patients in the dose-expansion phase without measurable disease at baseline per RECIST v1.1 were excluded from the efficacy-evaluable population.
Descriptive statistics were used to summarise all study data (see Supplemental Appendix). Progression-free survival (PFS) and event-free rates were estimated using the Kaplan–Meier method along with the corresponding 95% CI. Pharmacokinetic parameters were derived using standard non-compartmental methods with Phoenix WinNonlin Version 6.4 or higher (Pharsight Corp., Mountain View, California).

[2] = tested on: metastatic castration-resistant prostate cancer (mCRPC); test: PCWG2 response and PSA progression; type: in vivo, human
Experimental: as §1, §2

[3] = Phase 1 portion of NCT03333915, patients in China; cited from earlier work
[4] = design: method as in PMID 33128299; conditions: humans; current study and Phase 1 study in ovarian cancer; cited from earlier work
[5] = EOC, Total QD Dosage Group (n=9)
[6] = Total BID dosage group, EOC efficacy-evaluable (n = 51)

In the case of `C[C@]12CCCN1CC1=NNC(=O)c3cc(F)cc4[nH]c2c1c34` [pamiparib], the “Best overall response: Complete response” value ([1]; EOC, Total BID and QD (N=60)) is reported as 4 (6.7) n (%), the “Best overall response: Not assessed” value ([1]; EOC, Total BID and QD (N=60)) is reported as 3 (5.0) n (%) and the “Best overall response: Not evaluable” value ([1]; EOC, Total BID and QD (N=60)) is reported as 2 (3.3) n (%). For the same compound, the “Best overall response: Partial response” value ([1]; EOC, Total BID and QD (N=60)) was 19 (31.7) n (%), the “Best overall response: Progressive disease” value ([1]; EOC, Total BID and QD (N=60)) was 2 (3.3) n (%) and the “Best overall response: Stable disease” value ([1]; EOC, Total BID and QD (N=60)) was 30 (50.0) n (%). For the same compound, the Clinical benefit rate ([1]; EOC, Total BID and QD (N=60)) was 51.7 (38.39-64.77) % (95% CI), the Disease control rate ([1]; EOC, Total BID and QD (N=60)) was 88.3 (77.43-95.18) % (95% CI) and the Objective response rate ([1]; EOC, Total BID and QD (N=60)) was 38.3 (26.07-51.79) % (95% CI). The “Best overall response: Complete response” value [1, 5] was 0 (0) n (%), the “Best overall response: Not assessed” value [1, 5] was 0 (0) n (%) and the “Best overall response: Not evaluable” value [1, 5] was 1 (11.1) n (%). For the same compound, the “Best overall response: Partial response” value [1, 5] was 2 (22.2) n (%), the “Best overall response: Progressive disease” value [1, 5] was 0 (0) n (%) and the “Best overall response: Stable disease” value [1, 5] was 6 (66.7) n (%). For the same compound, the Clinical benefit rate [1, 5] was 33.3 (7.49-70.07) % (95% CI), the Disease control rate [1, 5] was 88.9 (51.75-99.72) % (95% CI) and the “ORR, subgroup Age <65” value [1, 5] was 20.0 (0.51-71.64) [5/9] % (95% CI). The “ORR, subgroup Age ≥65” value [1, 5] was 25.0 (0.63-80.59) [4/9] % (95% CI), the “ORR, subgroup Baseline ECOG performance status 0” value [1, 5] was 0.0 (0.00-97.50) [1/9] % (95% CI) and the “ORR, subgroup Baseline ECOG performance status ≥1” value [1, 5] was 25.0 (3.19-65.09) [8/9] % (95% CI). The “ORR, subgroup Germline BRCA status Mutant” value [1, 5] was 33.3 (0.84-90.57) [3/9] % (95% CI), the “ORR, subgroup Germline BRCA status Wild-type/Unknown” value [1, 5] was 16.7 (0.42-64.12) [6/9] % (95% CI) and the “ORR, subgroup Germline or somatic BRCA status Mutant” value [1, 5] was 33.3 (0.84-90.57) [3/9] % (95% CI). For the same compound, the “ORR, subgroup Germline or somatic BRCA status Wild-type/Unknown” value [1, 5] was 16.7 (0.42-64.12) [6/9] % (95% CI), the “ORR, subgroup HRD status Negative/Unknown” value [1, 5] was 20.0 (0.51-71.64) [5/9] % (95% CI) and the “ORR, subgroup HRD status Positive” value [1, 5] was 25.0 (0.63-80.59) [4/9] % (95% CI). The “ORR, subgroup Platinum-sensitivity status Sensitive” value [1, 5] was 66.7 (9.43-99.16) [3/9] % (95% CI), the “ORR, subgroup Solid tumor stage 3” value [1, 5] was 0.0 (0.00-52.18) [5/9] % (95% CI) and the “ORR, subgroup Solid tumor stage 4” value [1, 5] was 50.0 (1.26-98.74) [2/9] % (95% CI). The Objective response rate [1, 5] was 22.2 (2.81-60.01) % (95% CI), the “PFS censored: No disease progression or death” value [1, 5] was 2 (22.2) n (%) and the “PFS censored: No postbaseline assessment” value [1, 5] was 0 (0) n (%). The “PFS censored: ≥2 consecutive missed assessments” value [1, 5] was 0 (0) n (%), the “PFS events: Death” value [1, 5] was 3 (33.3) n (%) and the “PFS events: Disease progression” value [1, 5] was 4 (44.4) n (%). The “PFS: Censored” value [1, 5] was 2 (22.2) n (%), the “PFS: Events” value [1, 5] was 7 (77.8) n (%) and the “Progression-Free Survival, Median” value [1, 5] was 4.9 (1.84-NE) months (95% CI). For the same compound, the “Best overall response: Complete response” value [1, 6] was 4 (7.8) n (%), the “Best overall response: Not assessed” value [1, 6] was 3 (5.9) n (%) and the “Best overall response: Not evaluable” value [1, 6] was 1 (2.0) n (%). The “Best overall response: Partial response” value [1, 6] was 17 (33.3) n (%), the “Best overall response: Progressive disease” value [1, 6] was 2 (3.9) n (%) and the “Best overall response: Stable disease” value [1, 6] was 24 (47.1) n (%). For the same compound, the Clinical benefit rate [1, 6] was 54.9 (40.3–68.9) % (95% CI) and 54.9 (40.34-68.87) % (95% CI), the Disease control rate [1, 6] was 88.2 (76.1–95.6) % (95% CI) and 88.2 (76.13-95.56) % (95% CI) and the Objective response rate [1, 6] was 41.2 (27.6–55.8) % (95% CI) and 41.2 (27.58-55.83) % (95% CI). The “Median time to PSA progression” value ([2]; PSA-evaluable population (n=6)) was 4.2 months, the PSA progression rate ([2]; PSA-evaluable population (n=6)) was 33.3% and the “Responders per PCWG2 criteria (in words)” value ([2]; mCRPC, phase 1B Part A) was “No patients with mCRPC in phase 1B Part A were considered responders”. The “Anaemia, Grade ≥3” value [3] was 27% and the Bioavailability [4] was “high, with near-complete absorption”.
